Reference: US11260047B2, “Formulations of AG10” (Eidos Therapeutics, Inc., priority 2018, dated 2022)

How the values were obtained:
Assay type in all cases: in vivo
[1] = Pharmacokinetics of AG10 in dogs, oral gavage, Study No. 1; conditions: both sexes, dog, plasma
Protocol: Pharmacokinetics of AG10 were determined when administered once daily to dogs via oral gavage at 20, 60, and 200 mg/kg for 3 days (Study No. 1). Each group consisted of two animals/sex/group. Blood samples were collected from each animal on Day 1 at pre-dose, 0.25, 0.5, 1, 2, 4, 8, 12 and 24 hours post-dose, Day 3 at pre-dose, 0.25, 0.5, 1, 2, 4, 8, 12, 24, 48 and 72 hr post-dose. Plasma samples were assayed for AG10 by LC-MS/MS. In general, no sex differences in AG10 mean Cmax and AUC0-24 values were observed; therefore, results for the 20 mg/kg dose group are presented as combined sex values in Table 1 below.

[2] = Pharmacokinetics of AG10 tablets and capsule given orally to male beagle dogs, Study No. 3; conditions: for Tmax / Cmax / AUC(0-t): male, beagle, dog, plasma, po; for Tmax: dogs, read-out: time to maximal concentration (T max); for Cmax / AUC(0-t): male dogs; for AUC(0-t): read-out: AUC0-24
Protocol: AG10 was administered orally to 4 male beagle dogs each as a 50 mg tablet, 200 mg tablet, and a 200 mg capsule (No. 3). Blood samples were collected at pre-dose and approximately 0.25, 0.5, 1, 2, 4, 8, 24, 48, 72 and 96 hours post-dose. Plasma samples were assayed for AG10 by LC-MS/MS.

[3] = Pharmacokinetics of AG10 after oral administration in beagle dogs, Study No. 2; conditions: both sexes, dog, plasma, 20 mg/kg; for Cmax / AUC(0-t): 20 mg/kg oral, sex MF; for AUC(0-t): read-out: AUC0-24; for Tmax: read-out: time to maximal concentration (T max)
Protocol: The pharmacokinetics of AG10 were also determined following oral administration in non-naïve male and female beagle dogs (Study No. 2). The study design included three treatment groups (n=2/sex/group). Groups 1 and 2 received 5 mg/kg and 20 mg/kg AG10 in 0.5% methylcellulose (MC) formulations respectively. Group 3 animals received 20 mg/kg AG10 in gelatin capsule form. Blood samples were collected at pre-dose and approximately 2, 4, 6, 8, 12, and 24 hours post-dose. Plasma samples were assayed for AG10 by LC-MS/MS. Plasma exposures (AUC0-24) of AG10 in dogs administered 20 mg/kg AG10 as a suspension in 0.5% methylcellulose were similar to those obtained in Study No. 1 (Table 1). Plasma exposures of AG10 were also similar in dogs which were administered the same dose of AG10 either as a suspension in 0.5% methylcellulose or as a gelatin capsule without any excipients.

[4] = gelatin capsule without excipients

## Cc1n[nH]c(C)c1CCCOc1cc(C(=O)O)ccc1F [AG10, 3-(3-(3,5-dimethyl-1H-pyrazol-4-yl)propoxy)-4-fluorobenzoic acid]
[1]; 0.5% MC formulation, 20 mg/kg oral gavage, sex MF combined
  Cmax: 16100 ng/mL
[1]; 0.5% MC formulation, 20 mg/kg oral gavage, sex MF combined, read-out: AUC0-24
  AUC(0-t): 69100 ng·h/mL
[1]; po, 20 mg/kg, methylcellulose formulation, read-out: time to maximal concentration (T max)
  Tmax: 0.44 ± 0.38 h
[2]; 50 mg, 50 mg tablets
  Tmax: 0.5 h
[2]; 50 mg, tablet 50 mg oral
  Cmax: 4660 ng/mL
  AUC(0-t): 41500 ng·h/mL
[2]; 200 mg, 200 mg capsules with excipient
  Tmax: 1.38 ± 0.75 h
[2]; 200 mg, 200 mg tablets
  Tmax: 1 h
[2]; 200 mg, capsule 200 mg oral
  Cmax: 9330 ng/mL
  AUC(0-t): 65700 ng·h/mL
[2]; 200 mg, tablet 200 mg oral
  Cmax: 13000 ng/mL
  AUC(0-t): 88000 ng·h/mL
[2]; unpaired t-test, P value 0.0788
  Cmax, 200 mg tablets compared with 200 mg capsules: not significantly different
[2]; unpaired t-test, P value 0.0995
  AUC0-inf, 200 mg tablets compared with 200 mg capsules: not significantly different
[3]; 0.5% MC formulation
  Cmax: 8100 ng/mL
  AUC(0-t): 71200 ng·h/mL
[3]; capsule formulated without excipients
  Tmax: 2 h
[3]; [4]
  Cmax: 10300 ng/mL
  AUC(0-t): 89300 ng·h/mL
[3]; methylcellulose formulation
  Tmax: 2.5 ± 1 h
